Read-outs that look alike come from different tables or passages of the source.
Key:
paddy rice [1] = test: whole plant or invertebrate; assay type: in vivo, paddy rice (Asahi species); details: Oryza sativa, 720 h, granule, 30 days; for inhibition at 1000 g/ha: 100 g/10 are; for inhibition at 3000 g/ha: 300 g/10 are; for inhibition at 9000 g/ha: 900 g/10 are
How it was run: (§1)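 Barnyardgrass seeded in flooded alluvial paddy soil (~3 cm water) in concrete pots, with 2.5-leaf Asahi rice transplanted before weed emergence. Granules applied at weed 1-leaf or 5-leaf stage. Dry weights measured 30 days after treatment; inhibition rate calculated versus untreated area.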

[2] = test system: Echinochloa crus-galli var. oryzicola; test: Test Example 3: field test in transplanted paddy field, Echinochloa crus-galli var. oryzicola; assay type: in vivo; details: Echinochloa crus-galli, 1440 h; 300 g/10 are, granule, applied at 4-leaf stage, examined 60 days after transplantation; read-out: Inhibition (%) of E. crus-galli var. oryzicola
How it was run: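 Rice (Asahi) seedlings at 2,5-leaf stage transplanted into 10 m^2 paddy flooded 3–5 cm. Granules applied 25 days after transplanting, at the 4-leaf stage of Echinochloa. Assessed 60 days after transplanting as dry-weight inhibition relative to untreated area.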

Acute oral toxicity = details: in vivo, SD-strain rat
Protocol: (§2) Acute oral toxicity LD50 value of the compound of the invention measured on SD-strain rat is more than 2,000 mg/Kg for any of the trans-form, cis-form and a mixture thereof in equal amount and further acute fish toxicity TLm value (as defined by Official Standard issued from Ministry of Agriculture & Forestry) measured on young carp is more than 20 ppm for any of the above compounds.

Dopatrium junceum = test: Test Example 5: Wagner pot test, herbicidal effect on Dopatrium junceum; assay type: in vivo
How it was run: (§3)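 Paddy soil in 1/7500 are Wagner pots flooded about 2 cm, transplanted rice (2–3-leaf stage), sown bulrush, naturally emerging other weeds. Emulsion applied dropwise to water surface at predetermined concentration when weeds reached defined leaf age. Herbicidal effect and rice injury scored by index 20 days after application, three replicates.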

[3] = test system: Echinochloa crus-galli var. oryzicola; test: Test Example 2: concrete pot test on killing effect, Echinochloa crus-galli var. oryzicola; assay type: in vivo; details: Echinochloa crus-galli, 720 h, granule, 30 days after treatment; for inhibition at 1000 g/ha: 100 g/10 are; for inhibition at 3000 g/ha: 300 g/10 are; for inhibition at 9000 g/ha: 900 g/10 are
How it was run: as §1

paddy rice [4] = test: Test Example 1: pot test on selectivity, inhibition of paddy rice; assay type: in vivo; details: for inhibition at 750 g/ha / inhibition at 1500 g/ha / inhibition at 3000 g/ha / inhibition at 6000 g/ha / inhibition at 9000 g/ha: Oryza sativa, 720 h, dry weight 30 days after treatment; for inhibition at 750 g/ha: 75 g/10 are; for inhibition at 1500 g/ha: 150 g/10 are; for inhibition at 3000 g/ha: 300 g/10 are; for inhibition at 6000 g/ha: 600 g/10 are; for inhibition at 9000 g/ha: 900 g/10 are
How it was run: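 Alluvial paddy soil in pots sown with Echinochloa crus-galli var. oryzicola (50 seeds) and paddy rice (30 seeds), submerged about 1 cm. Dry weights taken 30 days after chemical treatment; inhibition rate calculated relative to untreated area.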

Acute fish toxicity = details: in vivo; young carp, Official Standard of Ministry of Agriculture & Forestry; read-out: acute fish toxicity TLm
Protocol: as §2

Umbrella plant = test: Test Example 5: Wagner pot test, herbicidal effect on umbrella plant; assay type: in vivo; details: 20 days after application
How it was run: as §3

[5] = test system: Echinochloa crus-galli var. oryzicola; test: Test Example 1: pot test on selectivity, inhibition of Echinochloa crus-galli var. oryzicola; assay type: in vivo; details: for inhibition at 750 g/ha / inhibition at 1500 g/ha / inhibition at 3000 g/ha / inhibition at 6000 g/ha / inhibition at 9000 g/ha: Echinochloa crus-galli, 720 h, dry weight 30 days after treatment; for inhibition at 750 g/ha: 75 g/10 are; for inhibition at 1500 g/ha: 150 g/10 are; for inhibition at 3000 g/ha: 300 g/10 are; for inhibition at 6000 g/ha: 600 g/10 are; for inhibition at 9000 g/ha: 900 g/10 are
How it was run: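 Inhibition rate was calculated from weed and rice dry weight relative to untreated pots, measured 30 days after treatment. The emulsion, at predetermined concentrations, was applied dropwise to flooded (~1 cm) paddy-soil pots sown with Echinochloa crus-galli var. oryzicola and rice, at the weed's one-leaf and five-leaf stages.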

[6] = rice at 3.5 leaves stage, read-out: Inhibition (%) by treatment at 1-leaf stage of E. crus-galli var. oryzicola, paddy rice
[7] = rice at 7 leaves stage, read-out: Inhibition (%) by treatment at 5-leaf stage of E. crus-galli var. oryzicola, paddy rice
[8] = read-out: Inhibition (%) by treatment at 1-leaf stage of E. crus-galli var. oryzicola, E. crus-galli var. oryzicola
[9] = read-out: Inhibition (%) by treatment at 5-leaf stage of E. crus-galli var. oryzicola, E. crus-galli var. oryzicola
[10] = 1-leaf stage, read-out: Inhibition (%) by treatment at 1-leaf stage, paddy rice
[11] = 5-leaf stage, read-out: Inhibition (%) by treatment at 5-leaf stage, paddy rice
[12] = trans-form, cis-form and mixtures compared
[13] = 1-leaf stage, read-out: Inhibition (%) by treatment at 1-leaf stage, E. crus-galli var. oryzicola
[14] = 5-leaf stage, read-out: Inhibition (%) by treatment at 5-leaf stage, E. crus-galli var. oryzicola

`C/C=C/COc1ccc(NC(=O)N(C)C)cc1` [trans-form, 3-(4-trans-crotyloxyphenyl)-1,1-dimethyl urea] gave an inhibition at 1000 g/ha (paddy rice [1]; [6]) of 0%, an inhibition at 1000 g/ha (paddy rice [1]; [7]) of 0% and an inhibition at 3000 g/ha (paddy rice [1]; [6]) of 0%. For the same compound, the inhibition at 3000 g/ha (paddy rice [1]; [7]) was 0%, the inhibition at 9000 g/ha (paddy rice [1]; [6]) was 0% and the inhibition at 9000 g/ha (paddy rice [1]; [7]) was 0%. For the same compound, the inhibition at 3000 g/ha [2] was 100%, the LD50 (Acute oral toxicity) was over 2000 mg/kg and the “Weed kill degree, Dopatrium junceum” value (Dopatrium junceum; 300 g/10a, leaf age 2, 20 days after application) was 5 (100). The “Weed kill degree, Dopatrium junceum” value (Dopatrium junceum; 300 g/10a, leaf age 3, 20 days after application) was 5 (100), the “Weed kill degree, Dopatrium junceum” value (Dopatrium junceum; 600 g/10a, leaf age 2, 20 days after application) was 5 (100) and the “Weed kill degree, Dopatrium junceum” value (Dopatrium junceum; 600 g/10a, leaf age 3, 20 days after application) was 5 (100). For the same compound, the inhibition at 1000 g/ha [3, 8] was 100%, the inhibition at 1000 g/ha [3, 9] was 100% and the inhibition at 3000 g/ha [3, 8] was 100%. The inhibition at 3000 g/ha [3, 9] was 100%, the inhibition at 9000 g/ha [3, 8] was 100% and the inhibition at 9000 g/ha [3, 9] was 100%. The inhibition at 750 g/ha (paddy rice [4]; [10]) was 0%, the inhibition at 750 g/ha (paddy rice [4]; [11]) was 0% and the inhibition at 1500 g/ha (paddy rice [4]; [10]) was 0%. The inhibition at 1500 g/ha (paddy rice [4]; [11]) was 0%, the inhibition at 3000 g/ha (paddy rice [4]; [10]) was 0% and the inhibition at 3000 g/ha (paddy rice [4]; [11]) was 0%. For the same compound, the inhibition at 6000 g/ha (paddy rice [4]; [10]) was 0%, the inhibition at 6000 g/ha (paddy rice [4]; [11]) was 0% and the inhibition at 9000 g/ha (paddy rice [4]; [10]) was 2%. The inhibition at 9000 g/ha (paddy rice [4]; [11]) was 0%, the “selectivity to paddy rice” value (paddy rice [4]; [12]) was “equivalent” and the LC50 (Acute fish toxicity) was over 20 µg/mL. The “Weed kill degree, Umbrella plant” value (Umbrella plant; 300 g/10a, leaf age 2 (first group of columns)) was 5 (100), the “Weed kill degree, Umbrella plant” value (Umbrella plant; 300 g/10a, leaf age 2 (second group of columns)) was 5 (100) and the “Weed kill degree, Umbrella plant” value (Umbrella plant; 600 g/10a, leaf age 2 (first group of columns)) was 5 (100). For the same compound, the “Weed kill degree, Umbrella plant” value (Umbrella plant; 600 g/10a, leaf age 2 (second group of columns)) was 5 (100), the inhibition at 750 g/ha [5, 13] was 96% and the inhibition at 750 g/ha [5, 14] was 86%. The inhibition at 1500 g/ha [5, 13] was 100%, the inhibition at 1500 g/ha [5, 14] was 100% and the inhibition at 3000 g/ha [5, 13] was 100%. The inhibition at 3000 g/ha [5, 14] was 100%, the inhibition at 6000 g/ha [5, 13] was 100% and the inhibition at 6000 g/ha [5, 14] was 100%. The inhibition at 9000 g/ha [5, 13] was 100%, the inhibition at 9000 g/ha [5, 14] was 100% and the “activity for killing Echinochloa spp.” value [5, 12] was “equivalent”.
